Measurements: patent US20230146395A1, “Substituted Pyrimidines and Uses Thereof” (Verge Analytics, Inc., priority 2020, published 2023)
Where a name gives a salt, the structure may show the parent alone.

Each compound was assayed against T1, Full length human recombinant PIKFYVE (Homo sapiens, UniProt Q9Y2I7) (assay: Inhibition of PIKfyve (microfluidic electrophoresis kinase assay, PI3P/PS substrate)). Conditions: 12 concentrations.
T1 construct: Full length human recombinant PIKFYVE; purchased Carna Biosciences (Kobe, Japan); host or cells: baculovirus expression system
Assay type: biochemical
Protocol: Full length human recombinant PIKFYVE expressed in baculovirus expression system as N-terminal GST-fusion protein (265 kDa) was obtained from Carna Biosciences (Kobe, Japan). The kinase substrate was prepared by mixing and sonicating fluorescently-labeled phosphatidylinositol 3-phosphate (PI3P) with phospho-L-serine (PS) at a 1:10 ratio in 50 mM HEPES buffer pH 7.5.
The kinase reactions were assembled in 384-well plates (Greiner) in a total volume of […] as follows. Kinase protein was pre-diluted in an assay buffer comprising 25 mM HEPES, pH 7.5, 1 mM DTT, 2.5 mM MgCl2, and 2.5 mM MnCl2, and 0.005% Triton X-100, and dispensed into a 384-well plate (10 μL per well). Test compounds were serially pre-diluted in DMSO and added to the protein samples by acoustic dispensing (Labcyte Echo). The concentration of DMSO was equalized to 1% in all samples. All test compounds were tested at 12 concentrations. Apilimod was used as a reference compound and was tested in identical manner in each assay plate. Control samples (0%-inhibition, in the absence of inhibitor, DMSO only) and 100%-inhibition (in the absence of enzyme) were assembled in replicates of four and were used to calculate %-inhibition in the presence of compounds. The reactions were initiated by addition of 10 μL of 2×PI3P/PS substrate supplemented with ATP. The final concentration of enzyme was 2 nM, the final concentration of ATP was […], and the final concentration of PI3P/PS substrate was 1 μM (PI3P). The kinase reactions were allowed to proceed for 3 h at room temperature. Following incubation, the reactions were quenched by addition of […] of termination buffer (100 mM HEPES, pH 7.5, 0.01% Triton X-100, 20 mM EDTA). Terminated plates were analyzed on a microfluidic electrophoresis instrument (Caliper LabChip® 3000, Caliper Life Sciences/Perkin Elmer). The change in the relative fluorescence intensity of the PI(3)P substrate and PI(3,5)P product peaks was measured. The activity in each test sample was determined as the product to sum ratio (PSR): P/(S+P), where P is the peak height of the product, and S is the peak height of the substrate. Percent inhibition (Pinh) was determined using the following equation:
Pinh=(PSR0% inh−PSRcompound)/(PSR0% inh−PSR100% inh)*100
in which PSRcompound is the product/sum ratio in the presence of compound, PSR0% inh is the product/sum ratio in the absence of compound, and the PSR100% inh is the product/sum ratio in the absence of the enzyme.

T1 sequence (Q9Y2I7 whole entry): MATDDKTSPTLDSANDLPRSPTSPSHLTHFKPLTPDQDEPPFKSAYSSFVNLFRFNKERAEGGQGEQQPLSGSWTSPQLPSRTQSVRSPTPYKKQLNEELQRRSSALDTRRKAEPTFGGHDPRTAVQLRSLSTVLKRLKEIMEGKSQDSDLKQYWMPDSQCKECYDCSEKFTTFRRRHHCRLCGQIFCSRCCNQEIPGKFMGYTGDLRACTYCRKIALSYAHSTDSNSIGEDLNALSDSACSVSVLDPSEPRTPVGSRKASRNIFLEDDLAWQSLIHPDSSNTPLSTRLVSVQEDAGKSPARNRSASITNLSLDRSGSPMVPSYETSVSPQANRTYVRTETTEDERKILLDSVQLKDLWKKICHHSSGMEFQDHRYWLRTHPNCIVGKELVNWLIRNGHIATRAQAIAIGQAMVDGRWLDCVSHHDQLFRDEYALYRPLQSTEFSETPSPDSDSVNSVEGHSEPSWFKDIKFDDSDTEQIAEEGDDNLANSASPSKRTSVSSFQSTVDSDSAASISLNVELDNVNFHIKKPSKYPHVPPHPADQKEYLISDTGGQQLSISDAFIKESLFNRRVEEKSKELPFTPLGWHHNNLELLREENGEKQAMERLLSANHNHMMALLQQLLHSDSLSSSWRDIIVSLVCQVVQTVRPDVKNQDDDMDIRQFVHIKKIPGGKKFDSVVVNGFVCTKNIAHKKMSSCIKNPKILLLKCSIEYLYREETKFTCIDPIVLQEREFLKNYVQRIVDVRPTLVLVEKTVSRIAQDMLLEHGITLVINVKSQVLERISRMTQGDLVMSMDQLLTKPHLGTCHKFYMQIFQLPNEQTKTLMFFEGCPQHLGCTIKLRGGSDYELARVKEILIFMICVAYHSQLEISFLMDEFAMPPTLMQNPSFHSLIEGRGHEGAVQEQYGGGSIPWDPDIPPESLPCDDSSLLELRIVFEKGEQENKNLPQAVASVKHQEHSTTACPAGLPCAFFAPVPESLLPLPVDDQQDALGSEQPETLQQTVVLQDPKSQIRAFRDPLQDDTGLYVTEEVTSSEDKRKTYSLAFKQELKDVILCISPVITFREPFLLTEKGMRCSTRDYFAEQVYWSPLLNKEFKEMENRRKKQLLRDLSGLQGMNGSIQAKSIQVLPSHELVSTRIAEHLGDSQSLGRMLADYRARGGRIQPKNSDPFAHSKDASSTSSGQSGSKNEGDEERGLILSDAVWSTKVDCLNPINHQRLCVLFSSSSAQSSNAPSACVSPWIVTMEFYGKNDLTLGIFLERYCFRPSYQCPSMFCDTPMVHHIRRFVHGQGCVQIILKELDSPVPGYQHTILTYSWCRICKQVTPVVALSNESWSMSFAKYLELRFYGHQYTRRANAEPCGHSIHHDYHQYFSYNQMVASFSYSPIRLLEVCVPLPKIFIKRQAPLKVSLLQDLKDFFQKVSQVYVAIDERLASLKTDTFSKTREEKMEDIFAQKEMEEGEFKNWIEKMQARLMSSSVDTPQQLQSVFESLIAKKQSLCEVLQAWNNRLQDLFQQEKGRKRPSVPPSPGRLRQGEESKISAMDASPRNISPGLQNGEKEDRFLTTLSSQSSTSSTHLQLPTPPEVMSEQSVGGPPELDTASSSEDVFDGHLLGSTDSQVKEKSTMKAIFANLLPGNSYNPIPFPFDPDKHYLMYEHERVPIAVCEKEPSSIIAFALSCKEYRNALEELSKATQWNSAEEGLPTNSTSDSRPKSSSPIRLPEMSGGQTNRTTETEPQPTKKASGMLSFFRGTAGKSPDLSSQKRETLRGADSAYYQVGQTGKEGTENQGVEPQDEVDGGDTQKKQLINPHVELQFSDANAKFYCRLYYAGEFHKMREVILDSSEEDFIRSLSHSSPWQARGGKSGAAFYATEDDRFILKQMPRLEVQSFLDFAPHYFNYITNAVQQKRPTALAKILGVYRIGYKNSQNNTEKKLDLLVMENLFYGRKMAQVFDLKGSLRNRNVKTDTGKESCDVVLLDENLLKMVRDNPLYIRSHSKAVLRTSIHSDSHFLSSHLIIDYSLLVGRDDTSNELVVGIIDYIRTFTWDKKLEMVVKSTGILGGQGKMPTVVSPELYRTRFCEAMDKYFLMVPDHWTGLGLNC

Going from `Cc1cccc(-c2cnn(-c3nc(N4CCOCC4)c4oc(C(=O)NCCS(C)(=O)=O)cc4n3)c2)c1` [Compound 150, N-(2-(methylsulfonyl)ethyl)-4-morpholino-2-(4-(m-tolyl)-1H-pyrazol-1-yl)furo[3,2-d]pyrimidine-6-carboxamide] to `Cc1cccc(-c2cnn(-c3nc(N4CCOCC4)c4oc(C(=O)NCCS(=O)(=O)N(C)C)cc4n3)c2)c1` [Compound 128, N-(2-(N,N-dimethylsulfamoyl)ethyl)-4-morpholino-2-(4-(m-tolyl)-1H-pyrazol-1-yl)furo[3,2-d]pyrimidine-6-carboxamide], the IC50 falls from 103 nM to 66.2 nM (1.6-fold).

First: CN1CCC(c2cc3nc(Nc4cc(-c5ccccc5)n[nH]4)nc(N4CCOCC4)c3o2)C1 (stereo not shown) [Compound 38]
Second: Cc1cccc(-c2cc(Nc3nc(N4CCOCC4)c4oc(C5CCN(C)CC5)cc4n3)[nH]n2)c1 [Compound 33]
The IC50 of the first is 2.2-fold higher: 131 nM for the first, 59 nM for the second.

Compared with `Cc1cccc(-c2ccn(-c3nc(N4CCOCC4)c4oc(-c5cc(C)n(CCN(C)C)n5)cc4n3)n2)c1` [Compound 178, N,N-dimethyl-2-[5-methyl-3-[4-morpholino-2-[3-(m-tolyl)pyrazol-1-yl]furo[3,2-d]pyrimidin-6-yl]pyrazol-1-yl]ethanamine], `Cc1cccc(-c2ccn(-c3nc(N4CCOCC4)c4oc(-c5cnc(C)[nH]5)cc4n3)n2)c1` [Compound 212, 6-(2-methyl-1H-imidazol-5-yl)-4-morpholino-2-(3-(m-tolyl)-1H-pyrazol-1-yl)furo[3,2-d]pyrimidine] is 2.6-fold higher in IC50: 0.9 nM for the first, 2.3 nM for the second. The first is the more potent here.

First: Cc1cccc(-c2ccn(-c3nc(N4CCOCC4)c4oc(-c5ccccn5)c(C)c4n3)n2)c1 [Compound 122, 7-methyl-4-morpholino-6-(pyridin-2-yl)-2-(3-(m-tolyl)-1H-pyrazol-1-yl)furo[3,2-d]pyrimidine]
Second: Cc1c(-c2ccccn2)oc2c(N3CCOCC3)nc(-n3ccc(-c4ccccc4)n3)nc12 [Compound 179, 7-methyl-4-morpholino-2-(3-phenyl-1H-pyrazol-1-yl)-6-(pyridin-2-yl)furo[3,2-d]pyrimidine]
The IC50 of the first is lower: 12.7 nM for the first, no less than 10000 nM for the second.

Compared with `Cn1ccc(-c2cc3nc(-n4cc(-c5ccccc5)cn4)nc(N4CCOCC4)c3o2)n1` [Compound 190, 6-(1-methylpyrazol-3-yl)-4-morpholino-2-(4-phenylpyrazol-1-yl)furo[3,2-d]pyrimidine], `c1ccc(-c2cnn(-c3nc(N4CCOCC4)c4oc(-c5ccccn5)cc4n3)c2)cc1` [Compound 161, 4-morpholino-2-(4-phenylpyrazol-1-yl)-6-(2-pyridyl)furo[3,2-d]pyrimidine] is 3.3-fold higher in IC50: 12.4 nM for the first, 40.4 nM for the second. The first is the more potent here.

Compared with `c1cc(-c2cc(Nc3nc(N4CCOCC4)c4oc(-c5ccncc5)cc4n3)[nH]n2)ccn1` [Compound 6, 4-morpholino-6-(4-pyridyl)-N-[5-(4-pyridyl)-1H-pyrazol-3-yl]furo[3,2-d]pyrimidin-2-amine, hydrogen chloride], `c1ccc(-c2cc(Nc3nc(N4CCOCC4)c4oc(-c5cccnc5)cc4n3)[nH]n2)cc1` [Compound 29, 4-morpholino-N-(5-phenyl-1H-pyrazol-3-yl)-6-(3-pyridyl)furo[3,2-d]pyrimidin-2-amine, hydrogen chloride] is 45-fold lower in IC50: 44.6 nM for the first, 1 nM for the second. The second is the more potent here.

Going from `Brc1cccc(-c2ccn(-c3nc(N4CCOCC4)c4oc(-c5ccccn5)cc4n3)n2)c1` [Compound 186, 2-[3-(3-bromophenyl)pyrazol-1-yl]-4-morpholino-6-(2-pyridyl)furo[3,2-d]pyrimidine] to `[2H]C([2H])([2H])c1cccc(-c2ccn(-c3nc(N4CCOCC4)c4oc(-c5ccccn5)cc4n3)n2)c1` [Compound 217, 4-morpholino-6-(2-pyridyl)-2-[3-[3-(trideuteriomethyl)phenyl]pyrazol-1-yl]furo[3,2-d]pyrimidine], the IC50 falls from 6 nM to 2.2 nM (2.7-fold). The second is the more potent here.

First: O=C(c1cc2nc(Nc3cc(-c4ccccc4)[nH]n3)nc(N3CCOCC3)c2o1)N1CCCC1 [Compound 54, [4-morpholino-2-[(5-phenyl-1H-pyrazol-3-yl)amino]furo[3,2-d]pyrimidin-6-yl]-pyrrolidin-1-yl-methanone; hydrogen chloride]
Second: O=C(c1cc2nc(Nc3cc(-c4ccccc4)[nH]n3)nc(N3CCOCC3)c2o1)N1CCOCC1 [Compound 135, morpholino(4-morpholino-2-((5-phenyl-1H-pyrazol-3-yl)amino)furo[3,2-d]pyrimidin-6-yl)methanone]
The IC50 of the first is 2.2-fold lower: 66 nM for the first, 147 nM for the second.

`CN1CCN(Cc2cc3nc(Nc4cc(-c5ccccc5)n[nH]4)nc(N4CCOCC4)c3o2)CC1` [Compound 15] and `Clc1cc2nc(Nc3cc(-c4ccccc4)n[nH]3)nc(N3CCOCC3)c2o1` [Compound 11, 6-chloro-4-morpholino-N-(5-phenyl-1H-pyrazol-3-yl)furo[3,2-d]pyrimidin-2-amine hydrochloride] are within 1.5-fold of each other in IC50: 71 nM for the first, 54.4 nM for the second.

Going from `CNC(=O)c1cc2nc(Nc3cc(C(F)(F)F)n[nH]3)nc(N3CCOCC3)c2o1` [Compound 81, N-methyl-4-morpholino-2-((5-(trifluoromethyl)-1H-pyrazol-3-yl)amino)furo[3,2-d]pyrimidine-6-carboxamide, hydrogen chloride] to `COCCNC(=O)c1cc2nc(Nc3cc(-c4ccccc4)[nH]n3)nc(N3CCOCC3)c2o1` [Compound 140, N-(2-methoxyethyl)-4-morpholino-2-((5-phenyl-1H-pyrazol-3-yl)amino)furo[3,2-d]pyrimidine-6-carboxamide], the IC50 falls from no less than 10000 nM to 43 nM.

Compared with `c1ccc(-c2coc(Nc3nc(N4CCOCC4)c4oc(-c5ccncc5)cc4n3)n2)cc1` [Compound 45, 4-morpholino-N-(4-phenyloxazol-2-yl)-6-(4-pyridyl)furo[3,2-d]pyrimidin-2-amine, hydrogen chloride], `c1ccc(-c2cc(Nc3nc(N4CCOCC4)c4oc(-c5ccccn5)cc4n3)[nH]n2)cc1` [Compound 26, 4-morpholino-N-(5-phenyl-1H-pyrazol-3-yl)-6-(2-pyridyl)furo[3,2-d]pyrimidin-2-amine, hydrogen chloride] is 480-fold lower in IC50: 48 nM for the first, 0.1 nM for the second.

First: CN1CCC(c2cc3nc(Nc4cc(-c5ccncc5)n[nH]4)nc(N4CCOCC4)c3o2)CC1 [Compound 34, 6-(1-methylpiperidin-4-yl)-4-morpholino-N-(3-(pyridin-4-yl)-1H-pyrazol-5-yl)furo[3,2-d]pyrimidin-2-amine hydrochloride]
Second: O=C(c1cc2nc(Nc3cc(-c4ccccc4)n[nH]3)nc(N3CCOCC3)c2o1)N1CCCCC1 [Compound 55, (4-morpholino-2-((3-phenyl-1H-pyrazol-5-yl)amino)furo[3,2-d]pyrimidin-6-yl)(piperidin-1-yl)methanone hydrochloride]
The IC50 of the first is 5.1-fold lower: 10 nM for the first, 51 nM for the second. The first is the more potent here.

First: O=C(NC1CCOCC1)c1cc2nc(-n3ccc(-c4cccc(Br)c4)n3)nc(N3CCOCC3)c2o1 [Compound 220, 2-[3-(3-bromophenyl)pyrazol-1-yl]-4-morpholino-N-tetrahydropyran-4-yl-furo[3,2-d]pyrimidine-6-carboxamide]
Second: O=C(NC1CCOCC1)c1cc2nc(-n3cc(-c4ccccc4)cn3)nc(N3CCOCC3)c2o1 [Compound 171, 4-morpholino-2-(4-phenylpyrazol-1-yl)-N-tetrahydropyran-4-yl-furo[3,2-d]pyrimidine-6-carboxamide]
The IC50 of the first is 2.4-fold lower: 16.3 nM for the first, 39.2 nM for the second. The first is the more potent here.

Compared with `c1ccc(-c2cnn(-c3nc(N4CCOCC4)c4oc(-c5cccnc5)cc4n3)c2)cc1` [Compound 160, 4-morpholino-2-(4-phenylpyrazol-1-yl)-6-(3-pyridyl)furo[3,2-d]pyrimidine], `CN(CC1CC1)C(=O)c1cc2nc(-n3cc(-c4ccccc4)cn3)nc(N3CCOCC3)c2o1` [Compound 66, N-(cyclopropylmethyl)-N-methyl-4-morpholino-2-(4-phenyl-1H-pyrazol-1-yl)furo[3,2-d]pyrimidine-6-carboxamide] is 9.9-fold higher in IC50: 61.7 nM for the first, 612 nM for the second. The first is the more potent here.

Going from `Cc1c(-c2ccncc2)oc2c(N3CCOCC3)nc(-n3ccc(-c4ccccc4)n3)nc12` [Compound 181, 7-methyl-4-morpholino-2-(3-phenylpyrazol-1-yl)-6-(4-pyridyl)furo[3,2-d]pyrimidine] to `Cn1ccc(-c2cc3nc(-n4ccc(-c5cccc(Cl)c5)n4)nc(N4CCOCC4)c3o2)n1` [Compound 193, 2-[3-(3-chlorophenyl)pyrazol-1-yl]-6-(1-methylpyrazol-3-yl)-4-morpholino-furo[3,2-d]pyrimidine], the IC50 falls from 59.4 nM to 24.6 nM (2.4-fold). The second is the more potent here.

Work on `[2H]C([2H])([2H])c1cccc(-c2ccn(-c3nc(N4CCOCC4)c4oc(-c5ccn(C)n5)cc4n3)n2)c1` [Compound 216, 6-(1-methylpyrazol-3-yl)-4-morpholino-2-[3-[3-(trideuteriomethyl)phenyl]pyrazol-1-yl]furo[3,2-d]pyrimidine] yielded an IC50 of 0.8 nM.
